According to patent US10473662B2, “Diagnostic and prognostic markers for cancer” (Wake Forest University Health Sciences, priority 2009, dated 2019):

Legend:
[1] = target: T1, ferroportin (Homo sapiens, UniProt Q9NP59); experiment: Western blot of ferroportin in hepcidin-treated cells; format: cell-based; details: HME cells, 300 or 700 nM hepcidin for 6 hours (FIG. 3D)
T1 construct: endogenous in cells; host or cells: primary human mammary epithelial (HME) cells (Lonza)
T1 sequence (Q9NP59 1-571): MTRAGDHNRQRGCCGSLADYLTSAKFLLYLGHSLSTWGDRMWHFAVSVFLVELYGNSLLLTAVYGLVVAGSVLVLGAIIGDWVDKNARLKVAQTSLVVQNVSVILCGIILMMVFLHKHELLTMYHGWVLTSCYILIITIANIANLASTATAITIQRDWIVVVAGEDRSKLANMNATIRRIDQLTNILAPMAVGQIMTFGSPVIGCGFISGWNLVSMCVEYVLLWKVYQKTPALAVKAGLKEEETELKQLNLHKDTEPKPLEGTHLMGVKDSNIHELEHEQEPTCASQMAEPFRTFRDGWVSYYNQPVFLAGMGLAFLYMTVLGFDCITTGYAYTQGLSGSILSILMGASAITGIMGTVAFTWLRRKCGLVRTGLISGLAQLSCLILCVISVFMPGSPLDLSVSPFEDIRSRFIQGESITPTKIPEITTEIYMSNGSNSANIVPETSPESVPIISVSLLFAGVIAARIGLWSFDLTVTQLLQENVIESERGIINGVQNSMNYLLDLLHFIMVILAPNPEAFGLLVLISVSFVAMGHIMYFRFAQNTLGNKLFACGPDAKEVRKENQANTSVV
Procedure: (§1) Human mammary epithelial (HME) cells were obtained from Lonza (Rockland, Me.). HME cells transduced with h-TERT, SV40 T antigen and high levels of H-ras are termed R5 cells in this report and were a generous gift from the laboratory of Dr. Robert Weinberg, Boston, Mass. (14). All cells were maintained at 37° C. in a humidified atmosphere containing 5% CO2. Cells were maintained in Dulbecco's […] (DMEM-F12) medium (Gibco/BRL [Grand Island, N.Y.]) supplemented with L-glutamine, 10 μg/ml insulin, 10 ng/ml human epidermal growth factor, and 0.5 μg/ml hydrocortisone for 24 hrs prior to harvest. MCF7 and MCF10A cell lines were obtained from the Wake Forest University Comprehensive Cancer Center Tissue Culture Core facility. […]
(§2) Cells were washed once in phosphate-buffered saline (PBS) and scraped. […] Total protein concentrations were determined using BCA reagent (Pierce). […] Ferritin H was detected as previously described (49). Ferroportin was detected using anti-ferroportin-1 antibody (MTP-1, Alpha Diagnostics) followed by horseradish peroxidase conjugated goat anti-rabbit secondary antibody (Bio-Rad). […] Prohepcidin was detected using a rabbit polyclonal antibody (Hepcidin-25 antibody, ab75883, Abcam) followed by horseradish peroxidase conjugated goat anti-rabbit secondary antibody (Bio-Rad). […]

[2] = tested on: HME cells; experiment: Labile iron pool assay (calcein) in hepcidin-treated cells; format: cell-based, human; details: 700 nM hepcidin or vehicle control (FIG. 3B)
Procedure: as §1, with “facility. SUM149 and SUM102 cell lines were a generous gift of Dr. I. Berquin, Wake Forest University School of Medicine.” for “facility.”
The cellular labile iron pool (LIP) was measured with the fluorescent metallosensor calcein, essentially as described (20). […] Fluorescence was measured at 485 nm excitation and 535 nm emission with a fluorescence plate reader (fmax Fluorescence Microplate Reader, Molecular Devices). After the fluorescence signal was stabilized, SIH was added to remove iron from calcein, causing dequenching. The change in fluorescence following the addition of SIH (ΔF) was used as a measure of the labile iron pool.

[3] = tested on: ferritin H; experiment: Western blot of ferritin H in hepcidin-treated cells; format: cell-based, human; details: HME cells, 300 nM or 700 nM hepcidin for 6 hours (FIG. 3C)
Procedure: as §1, §2

ferroportin protein (Western blotting) [1]: Ferroportin is degraded
Substance: Hepcidin: Peptide hormone that binds ferroportin and triggers its degradation; obtained from Peptides International, dissolved in water
labile iron pool [2]: increases the labile iron pool | levels of ferritin protein (ferritin H, Western blotting) [3]: increases levels of ferritin protein
